Patent US20170247335A1, “FLUORINATED PYRIDAZIN-3-ONES FOR THE USE THEREOF IN THE TREATMENT OF LUNG DISEASES” (UNIVERSITE DE REIMS CHAMPAGNE-ARDENNE, priority 2014, published 2017)

What was measured:
Assay type in all cases: biochemical
PDE1 = PDE1 enzyme inhibition, same colorimetric test; settings: at a concentration of 50 μM of compound
Experimental: (§1) In order to evaluate the action of the compounds (Ic), (Ig) and (Ii) according to the invention, the activity of different sub-types of phosphodiesterases, either of type 4 or not, was tested in vitro by using a kit adapted to the recombinant isoforms of human phosphodiesterases PDE4B2 and PDE4D coded by Escherichia coli. The activity of the PDE1 and PDE10 enzymes was also monitored.
(§2) The principle of the test is based on the cleavage of AMPc by the enzymes phosphodiesterases. The nucleotide-5′ which is sorted out during the reaction is itself cleaved by an enzyme 5′-nucleotidase into a nucleoside and a phosphate, the latter being quantified by using the reagent Biomol Green™.
(§3) The PDE enzymes are incubated on microplates in the presence of AMPc, 5′-nucleotidase, in the presence of an inhibitor, more particularly corresponding to the compound (Ic), (Ig) or (Ii) according to the invention, or in the absence of any inhibitor (control), and this for a period of the order of 60 mins.
(§4) The reaction is stopped by adding an amount of 100 microliters of the reagent Biomol Green™ and the plate is incubated for further 30 mins in order to allow development of the colour before reading the absorbance by means of a micro-plate reader.
The study of the inhibition of the PDE enzymes by the compound (Ic), (Ig) or (Ii) according to the invention was carried out by testing […] different concentrations (500 μM, 50 μM, 5 μM and 0.5 μM) of said compounds (Ic), (Ig) or (Ii).

[1] = tested on: PDE4 (recombinant human phosphodiesterases PDE4B2 and PDE4D); experiment: PDE4 enzyme inhibition, colorimetric cAMP cleavage test (5'-nucleotidase, Biomol Green); settings: for IC50: average of three independent determinations, non-linear regression, 60 min incubation, 2% DMSO, read-out: CI50 (inhibitory concentration 50)
Experimental: The activity of the PDE1 and PDE10 enzymes was also monitored.
as §2, §4
The CI50s which were calculated represent the average value of three determinations which were achieved independently of each other.
A non-specific inhibitor of the PDE enzymes, 3-isobutyl-1-methylxanthin (IBMX) corresponds to the control.

PDE10 = PDE10 (Homo sapiens, UniProt Q9Y233); experiment: PDE10 enzyme inhibition, same colorimetric test; settings: read-out: percentage of inhibition towards PDE10
PDE10, sequence (Q9Y233 whole entry): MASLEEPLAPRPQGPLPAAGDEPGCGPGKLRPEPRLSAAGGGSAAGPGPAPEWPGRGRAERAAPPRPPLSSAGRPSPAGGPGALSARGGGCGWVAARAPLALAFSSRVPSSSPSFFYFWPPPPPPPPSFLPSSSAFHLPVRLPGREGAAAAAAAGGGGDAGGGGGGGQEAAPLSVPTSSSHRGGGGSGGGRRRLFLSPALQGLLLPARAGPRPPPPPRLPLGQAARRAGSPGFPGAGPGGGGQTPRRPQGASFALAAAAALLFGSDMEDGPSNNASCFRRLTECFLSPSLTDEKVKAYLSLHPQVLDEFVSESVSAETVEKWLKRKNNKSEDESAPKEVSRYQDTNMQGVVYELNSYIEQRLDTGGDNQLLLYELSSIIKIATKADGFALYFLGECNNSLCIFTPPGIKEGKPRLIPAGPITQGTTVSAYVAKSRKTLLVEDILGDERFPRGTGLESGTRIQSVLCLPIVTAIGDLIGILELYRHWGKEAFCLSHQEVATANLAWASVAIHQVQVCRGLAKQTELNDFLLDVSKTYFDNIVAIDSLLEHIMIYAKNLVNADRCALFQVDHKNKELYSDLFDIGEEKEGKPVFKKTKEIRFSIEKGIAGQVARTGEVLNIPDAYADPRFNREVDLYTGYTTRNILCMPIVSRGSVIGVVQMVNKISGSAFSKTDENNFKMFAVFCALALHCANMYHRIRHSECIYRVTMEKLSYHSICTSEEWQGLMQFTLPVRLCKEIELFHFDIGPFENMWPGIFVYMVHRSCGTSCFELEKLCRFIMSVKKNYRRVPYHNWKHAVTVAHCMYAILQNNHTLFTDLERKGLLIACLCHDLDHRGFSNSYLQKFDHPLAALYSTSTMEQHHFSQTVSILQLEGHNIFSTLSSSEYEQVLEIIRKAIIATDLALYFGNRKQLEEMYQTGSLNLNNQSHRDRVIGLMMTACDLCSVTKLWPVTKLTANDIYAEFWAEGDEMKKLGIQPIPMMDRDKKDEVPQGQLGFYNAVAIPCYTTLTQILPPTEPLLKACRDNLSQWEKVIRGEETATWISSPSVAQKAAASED
Experimental: as §1, §2, §3
The reaction is stopped by adding an amount of 100 microliters of the reagent Biomol Green™ and the plate is incubated for further 30 mins in order to allow development of the colour before reading the absorbance by means of a micro-plate reader. […]

[2] = at a concentration of 50 μM of compound

Row | Structure (SMILES) | inhibition of PDE1 (PDE1) [%] | inhibition percentage of PDE4 [1, 2] [%] | IC50 [1] [µM] | inhibition at 50 µM (PDE10) [%] | inhibition percentage of PDE4 ([1]; at a 5 μM concentration of compound) [%]
1 | COc1ccc(-c2cc(C(F)(F)F)c(=O)[nH]n2)cc1OC [compound (Ic), 4-(trifluoromethyl)-6-(3′,4′-dimethoxyphenyl)pyridazin-3(2H)-one] | 0 | 74 | 8.1 | – | –
2 | Cc1ccc(-c2cc(C(F)(F)F)c(=O)n(-c3ccccc3)n2)cc1 [compound (Ig), 4-(trifluoromethyl)-2-phenyl-6-(p-tolyl)pyridazin-3(2H)-one] | 0 | 45 | 15 | – | –
3 | COc1cc(-c2cc(C(F)(F)F)c(=O)[nH]n2)ccc1OC(F)F [compound (Ii), 6-(4′-(difluoromethoxy)-3′-methoxy-phenyl)-4-(trifluoromethyl)pyridazin-3(2H)-one] | 0 | – | 0.25 | 9 | 56
